Target: T1, JAK3 (Homo sapiens, UniProt P52333)
T1 sequence (P52333 1-1124): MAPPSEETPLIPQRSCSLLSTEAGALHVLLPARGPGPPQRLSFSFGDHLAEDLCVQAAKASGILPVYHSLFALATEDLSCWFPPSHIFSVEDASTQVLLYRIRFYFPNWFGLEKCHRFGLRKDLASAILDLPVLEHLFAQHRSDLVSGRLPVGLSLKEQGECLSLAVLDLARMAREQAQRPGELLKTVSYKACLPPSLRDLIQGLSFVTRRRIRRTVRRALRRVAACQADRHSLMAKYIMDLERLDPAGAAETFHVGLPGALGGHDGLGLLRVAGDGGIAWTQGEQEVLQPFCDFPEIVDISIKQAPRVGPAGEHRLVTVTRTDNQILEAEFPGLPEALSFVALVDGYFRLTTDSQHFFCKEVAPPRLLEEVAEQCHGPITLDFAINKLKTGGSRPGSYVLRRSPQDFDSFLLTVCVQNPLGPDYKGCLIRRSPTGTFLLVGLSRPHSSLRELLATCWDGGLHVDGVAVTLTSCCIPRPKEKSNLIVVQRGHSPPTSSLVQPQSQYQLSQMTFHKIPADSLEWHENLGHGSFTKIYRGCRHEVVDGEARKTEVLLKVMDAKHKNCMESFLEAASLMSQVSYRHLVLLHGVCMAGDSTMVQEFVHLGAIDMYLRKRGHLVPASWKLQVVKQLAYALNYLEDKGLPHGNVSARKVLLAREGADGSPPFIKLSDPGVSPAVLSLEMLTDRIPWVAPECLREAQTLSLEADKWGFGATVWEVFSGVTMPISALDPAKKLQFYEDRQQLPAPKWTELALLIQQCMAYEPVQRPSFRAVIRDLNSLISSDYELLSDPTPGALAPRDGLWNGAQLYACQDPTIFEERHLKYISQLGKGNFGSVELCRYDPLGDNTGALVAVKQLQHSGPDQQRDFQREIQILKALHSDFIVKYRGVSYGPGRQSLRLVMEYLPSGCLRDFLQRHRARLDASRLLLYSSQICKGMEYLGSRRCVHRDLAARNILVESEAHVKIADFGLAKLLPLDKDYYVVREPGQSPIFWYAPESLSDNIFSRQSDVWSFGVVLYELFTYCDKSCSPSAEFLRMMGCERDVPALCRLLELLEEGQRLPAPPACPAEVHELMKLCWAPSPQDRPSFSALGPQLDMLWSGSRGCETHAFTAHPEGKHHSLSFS
Experiment: JAK3 IL-2-NK-92/pSTAT5 cell-based assay (Cellomics ArrayScan HCS)
Set-up: host or cells: NK-92 (natural killer) cells
Source text: IL-2 activates the JAK3 pathway in natural killer (NK) cells to drive the NK and CD8 lymphocyte proliferation. Therefore, IL-2 stimulated NK92/pSTAT5 cell-based assay enables the evaluation of the JAK3 cellular activity of JAK compounds in vitro.
NK-92 (natural killer) cells (ATCC, Manassas, Va.) are maintained in minimum essential medium (MEM) Alpha with 15% fetal bovine serum, 15% Horse Serum and 1× antibiotic/antimycotic (Invitrogen, Carlsbad, Calif.). The medium is supplemented with IL-2 (R&D systems, Minneapolis, Minn.) for a final concentration of 4 ng/mL. Cells are kept at 37° C. with 5% CO2. Cells are starved in serum free medium to remove endogenous growth factors. NK-92 cells are counted and collected to seed 2×10^7 cells per 96-well plate at a density of 2×10^5 cells per well. The cells are rinsed twice with unsupplemented MEM Alpha (MEM Alpha) before suspending cells at a final concentration of 8×10^5 cells/mL in MEM Alpha with 0.6% serum (0.3% FBS, 0.3% horse serum). The diluted cells are added back to tissue culture flasks and incubated overnight at 37° C. Test compound is prepared in 100% DMSO at 10 mM concentration. […] An aliquot of 200 μL of 1 to 10 dilution of Mouse anti-pSTAT5 (pY694) Alexa Fluor 647® in fluorescence activated cell sorting (FACS) buffer is added to the cells. […] Mean fluorescent intensity data are collected and analyzed using Cellomics Arrayscan® VTi. […]

Question: With `Cc1cc(Nc2ccc3ncn([C@@H]4CCc5ccc(F)cc54)c3n2)[nH]n1.Cl.Cl` [Example 1, 3-[(1R)-6-fluoro-2,3-dihydro-1H-inden-1-yl]-N-(3-methyl-1H-pyrazol-5-yl)-3H-imidazo[4,5-b]pyridin-5-amine dihydrochloride] as the compound, how does the IC50 (NK-92 cells, IL-2 at 0.5 ng/mL, relative IC50, n=61, read-out: IC50, inhibits JAK3 (pSTAT5)) read?
Answer: Its IC50 is 228 nM.

Question: And the “ratio of JAK3/JAK2 IC50” value (from the two cell-based assays (EPO-TF1/pSTAT5 and IL-2-NK-92/pSTAT5))?
Answer: The value was “more than six-fold”.

Source: patent US9062050B2, “Inhibitor of JAK1 and JAK2” (Eli Lilly and Company, priority 2012, dated 2015)
